Legend:
U87-MG cells = test: CCK-8 IC50 determination in U87-MG cells with or without GLUT3 KD; type: cell-based, human; conditions: GLUT3 KD vs control, CCK-8, 24 h drug treatment
Experimental: (§1) The GBM cell line was seeded into a 96-well plate at a density of 5 × 10^3 cells per well and incubated at 37 °C in a humidified atmosphere containing 5% CO2 overnight. […] Following 24 h of drug treatment, 10 µL of CCK-8 reagent was added to each well, and the cells were incubated for an additional 1 h at 37 °C. The absorbance was then measured at 450 nm using a microplate reader.
(§2) In this study, the experimental groups were designated as Group A (cells treated with temozolomide (TMZ) or capecitabine (CAPE)), the control group as Group B (cells treated with DMSO), and the blank control group as Group C ([…]). The cell viability rate was calculated using the formula: (A-C)/(B-C) × 100%, where A, B, and C represent the absorbance values of Group A, Group B, and Group C, respectively.

U251-MG cells = test: CCK-8 IC50 determination in U251-MG cells with or without GLUT3 OE; type: cell-based, human; conditions: GLUT3 OE vs control, CCK-8, 24 h drug treatment
Experimental: as §1, §2

## Nc1ccn([C@@H]2O[C@H](CO)[C@@H](O)C2(F)F)c(=O)n1 [GEM, gemcitabine]
U87-MG cells
  fold increase of IC50 on GLUT3 knockdown: ~ 1.6 fold
U251-MG cells
  reduction of IC50 in GLUT3 overexpressing cells compared to control cells: ~ 81.7%

## Nc1ccn([C@@H]2O[C@H](CO)[C@@H](O)[C@@H]2O)c(=O)n1 [cytarabine]
U87-MG cells
  fold increase of IC50 on GLUT3 knockdown: 4.3 fold

From publication PMC12354831 (Cell Death Discovery, 2025)
